Source: patent US20190117535A1, “ORAL RINSE” (Church & Dwight Co., Inc., priority 2017, published 2019)

Assays:
[1] = Mixing time until clear solution / until TSPP is dissolved
Experimental: With US sourced raw materials, deionized water and sorbitol were combined. TSPP was added and fully dissolved. Zinc chloride was then added.
With US sourced raw materials, deionized water and sorbitol were combined. TSPP and zinc chloride were then simultaneously added and fully dissolved.
With Montreal sourced raw materials, deionized water and sorbitol were combined. Zinc chloride, TSPP, DSPP, and saccharin were then simultaneously added and mixed.
Charged deionized water, sorbitol, and saccharin were mixed until dissolved. A 50% zinc chloride solution was added and mixed. […] TSPP was added and mixed. […] Charged DSPP was added. […] The mix time to get the TSPP into solution was 28 minutes.
A 50% zinc chloride solution was prepared. Water and sorbitol were added to the main mix tank followed by saccharin. Saccharin was allowed to fully dissolve before adding the zinc chloride premix. […] TSPP was then added and it took 70 minutes to fully dissolve.
Mix times for TSPP to go into solution were 30 minutes (25 KG) & 23 minutes (150 KG).

[2] = Visual observation of precipitate formation / clarity while making the oral rinse composition; format: physicochemical
Experimental: A pilot trial was conducted to determine how sorbitol was affecting precipitate. A deionized water/sorbitol solution was made up and added to an empty chamber. […] A second trial was done with sorbitol as a rinse first, and then water was added.

SMILES: O=P([O-])([O-])OP(=O)([O-])[O-].[Na+].[Na+].[Na+].[Na+] [TSPP, tetrasodium pyrophosphate]
- mix time to get the TSPP into solution ([1]; full pilot batch (150 KG), 50% zinc chloride solution): 28 min
- time for TSPP to fully dissolve ([1]; full scale batch (800 KG), TSPP added after 50% zinc chloride premix): 70 min
- dissolution time of TSPP ([1]; full scale batch (8000 KG), 62% zinc chloride solution, TSPP powder sifted through a screen): about 30 minutes
- mix time for TSPP to go into solution ([1]; pilot trial 25 KG, 62% zinc chloride solution): 30 min
- mix time for TSPP to go into solution ([1]; pilot trial 150 KG, 62% zinc chloride solution): 23 min
- mixing time until solution clear after TSPP addition ([1]; pilot trial, TSPP added after 50% zinc chloride solution): 50 min

SMILES: OC[C@@H](O)[C@@H](O)[C@H](O)[C@@H](O)CO [sorbitol]
- precipitate on rinsing the container ([2]; deionized water/sorbitol solution added to empty chamber): No precipitate formed, but solution was slightly cloudy
- precipitate on rinsing the container ([2]; sorbitol as a rinse first, then water added): No precipitate formed
